Reference: patent US20130143964A1, “S[…], AND COSMETIC COMPOSITION, FOOD, AND SUNDRY ARTICLE CONTAINING THE SAME” (priority 2010, published 2013)

System: activity of the sympathetic nerve
Assay: Test of measuring sympathetic nerve activity: power spectrum analysis of systolic blood pressure fluctuation (SBP-LF) when smelling the aroma
Type: in vivo, human test subjects
Procedure: The test samples were prepared by diluting ethyl 4-methoxybenzoate with ethanol to a concentration of 0.1 mass %, and how the aromas of those test samples influenced the sympathetic nerve activity was tested.
(Test Method of Measuring Sympathetic Nerve Activity)
A heart beat interval or blood pressure constantly change in a complex manner even at rest, and is under control of multiple nervous systems representing the sympathetic nerve and the parasympathetic nerve. Thus, it is known that the activity of respective nervous systems can be calculated by analyzing the frequency of a heart beat interval variation (a heart beat interval fluctuation) or a blood pressure variation (a blood pressure fluctuation). […] The activity of the sympathetic nerve is quantified from the intensity of the low frequency component (SBP-LF), and an influence of an aroma given off from the test sample on the activity of the sympathetic nerve was evaluated. […]
A tonometry sensor was fitted at a carpal radius […] of a test subject, and is connected to a patient monitor for continuous measurement of blood pressure. […] Continuously measured blood pressure data was taken in a personal computer to undergo power spectrum analysis of the blood pressure fluctuation in systole using automatic nervous system activity analytical software. […]

CCOC(=O)c1ccc(OC)cc1 [ethyl 4-methoxybenzoate]
activity of the sympathetic nerve (determination from SBP-LF ratio) (six test subjects in their 20's smelling aroma of 0.1 mass % test sample): the activity of the sympathetic nerve quieted down | SBP-LF ratio (SBP-LF value when smelling the aroma divided by SBP-LF value when not smelling the aroma) (six test subjects in their 20's, 0.1 mass % in ethanol, 20 μl soaked into cotton stuck below the nose, ethanol volatilized, 25° C., humidity 45%): smaller than 1
